In one assay the target is human BACE1 (Homo sapiens, UniProt P56817). Description: Fluorescent kinetic assay, inhibition of BACE1 (WABC-6 peptide substrate).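 Also: fluorescence monitored at 320 nm excitation and 420 nm emission every 40 s over 30 min, with the substrate cleavage rate taken from the linear slope.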 The format is biochemical. To be noted: 10 nM enzyme, 25 μM substrate WABC-6, pH 4.5, room temperature; read-out: IC50 (μM) BACE1.
Another assay addresses T1, human BACE2 (Homo sapiens, UniProt Q9Y5Z0).
T1 sequence (Q9Y5Z0 63-518): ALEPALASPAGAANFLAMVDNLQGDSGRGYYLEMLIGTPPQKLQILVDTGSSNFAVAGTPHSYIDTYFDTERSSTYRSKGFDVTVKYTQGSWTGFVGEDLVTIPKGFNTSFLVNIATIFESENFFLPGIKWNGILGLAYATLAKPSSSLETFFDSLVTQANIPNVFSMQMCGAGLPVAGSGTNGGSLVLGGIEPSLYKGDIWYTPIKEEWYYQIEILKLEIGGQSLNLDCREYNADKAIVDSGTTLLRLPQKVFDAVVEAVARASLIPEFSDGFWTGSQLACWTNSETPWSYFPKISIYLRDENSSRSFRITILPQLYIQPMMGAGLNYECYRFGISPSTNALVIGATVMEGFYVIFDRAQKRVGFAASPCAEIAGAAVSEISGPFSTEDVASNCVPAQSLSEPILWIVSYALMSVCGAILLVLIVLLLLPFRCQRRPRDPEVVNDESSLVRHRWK
Description: Fluorescent Kinetic Assay for Human Recombinant BACE 2 (selectivity BACE1/BACE2).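 Also: cleavage rate from the linear slope of fluorescence (excitation 320 nm, emission 420 nm) recorded every 40 s over 30 min at room temperature, sodium acetate buffer with 0.05% CHAPS.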 It is filed as biochemical. To be noted: selectivity BACE1 over BACE2; 1.5 nM human BACE2, 25 μM substrate, pH 4.5.

The text below walks through data of patent US7700602B2, “Amino-5,5-diphenylimidazolone derivatives for the inhibition of β-secretase” (Wyeth LLC, priority 2004, dated 2010).

Where only a bound is given, the exact number is not on record here.

Chain of human BACE1 (P56817 46-501): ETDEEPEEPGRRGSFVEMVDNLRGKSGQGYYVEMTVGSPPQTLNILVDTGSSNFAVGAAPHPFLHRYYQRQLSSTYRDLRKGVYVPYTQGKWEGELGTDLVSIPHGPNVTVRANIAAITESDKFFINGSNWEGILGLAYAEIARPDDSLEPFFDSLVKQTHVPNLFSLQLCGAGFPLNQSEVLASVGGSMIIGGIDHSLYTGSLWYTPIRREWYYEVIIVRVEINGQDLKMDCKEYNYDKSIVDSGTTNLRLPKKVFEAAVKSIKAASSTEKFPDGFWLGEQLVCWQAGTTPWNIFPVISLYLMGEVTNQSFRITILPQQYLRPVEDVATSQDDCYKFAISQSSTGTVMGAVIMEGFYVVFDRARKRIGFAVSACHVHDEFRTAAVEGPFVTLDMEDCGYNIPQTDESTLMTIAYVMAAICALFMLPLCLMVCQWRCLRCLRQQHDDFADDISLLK

By IC50 is commonly meant the concentration that inhibits the measured activity by half. As for `CN1C(=O)C(c2ccc(OC(F)(F)F)cc2)(c2ccc(F)c(-c3cccnc3F)c2)N=C1N` (stereo not shown) [Example 74], on human BACE1, the 50% inhibitory concentration (IC50) was 0.01 to 0.1 µM. For the same molecule, on human BACE2, the BACE1/BACE2 selectivity entry was “II (II = 10-100-fold selectivity)”.

`COc1ccc(C2(c3cccc(-c4cccnc4OC)c3)N=C(N)N(C)C2=O)cc1C` (stereo not shown) [Example 75]: the IC50 at human BACE1 fell in the range of 0.11 to 1 µM. Moreover, the BACE1/BACE2 selectivity entry at human BACE2 is “II (II = 10-100-fold selectivity)”.

On to `CN1C(=O)C(c2ccc(OC(F)(F)F)c(F)c2)(c2ccc(F)c(-c3cnccc3F)c2)N=C1N` (stereo not shown) [Example 78], for which the IC50 at human BACE1 lay in the range of 0.01 to 0.1 µM. For the same molecule, the BACE1/BACE2 selectivity entry at human BACE2 was “II (II = 10-100-fold selectivity)”.

For the molecule `COc1ccc(C2(c3ccc(F)c(-c4cncc(Cl)c4)c3)N=C(N)N(C)C2=O)cc1` (stereo not shown) [Example 80], the IC50 at human BACE1 lay within 0.01 to 0.1 µM. Further, at human BACE2, the BACE1/BACE2 selectivity result was “III (III = <10-fold selectivity)”.

Take `CCOc1ccc(C2(c3cccc(-c4cnccc4F)c3)N=C(N)N(C)C2=O)cc1OCC` (stereo not shown) [Example 81]: the IC50 on human BACE1 was in the range of 0.01 to 0.1 µM. In addition, the BACE1/BACE2 selectivity entry on human BACE2 is recorded as “II (II = 10-100-fold selectivity)”.

Take `CN1C(=O)C(c2ccc(OC(F)(F)F)cc2)(c2cccc(-c3cnccc3F)c2)N=C1N` (stereo not shown) [Example 82]: the IC50 on human BACE1 fell in the range of 0.01 to 0.1 µM. For the same molecule, the BACE1/BACE2 selectivity entry at human BACE2 is “II (II = 10-100-fold selectivity)”.

As to `COc1ccc(C2(c3ccc(F)c(-c4cnccc4F)c3)N=C(N)N(C)C2=O)cc1` (stereo not shown) [Example 83], at human BACE1, the IC50 lay within 0.01 to 0.1 µM. The BACE1/BACE2 selectivity entry on human BACE2 was “II (II = 10-100-fold selectivity)”.

On to `CN1C(=O)C(c2ccc(OC(F)(F)F)cc2)(c2cc(-c3cccnc3)ccc2F)N=C1N` (stereo not shown) [Example 84], for which the IC50 at human BACE1 was in the range of 0.11 to 1 µM. Further, the BACE1/BACE2 selectivity result at human BACE2 is reported as “I (I = >100-fold selectivity)”.

As to `CN1C(=O)C(c2ccc(OC(F)F)cc2)(c2ccc(F)c(-c3ccc(F)nc3)c2)N=C1N` (stereo not shown) [Example 88], at human BACE1, the IC50 lay in the range of 0.01 to 0.1 µM. In addition, at human BACE2, the BACE1/BACE2 selectivity result is given as “II (II = 10-100-fold selectivity)”.

Regarding `CN1C(=O)C(c2ccc(OC(F)F)cc2)(c2cccc(-c3ccc(F)nc3)c2)N=C1N` (stereo not shown) [Example 90], the IC50 at human BACE1 was in the range of 0.01 to 0.1 µM. The BACE1/BACE2 selectivity result on human BACE2 is “II (II = 10-100-fold selectivity)”.

As to `CN1C(=O)C(c2ccc(OC(F)F)cc2)(c2cccc(-c3cc(F)cnc3F)c2)N=C1N` (stereo not shown) [Example 91], the IC50 at human BACE1 was in the range of 0.01 to 0.1 µM. The BACE1/BACE2 selectivity result at human BACE2 is recorded as “II (II = 10-100-fold selectivity)”.

Turning to `CN1C(=O)C(c2ccc(OC(F)F)cc2)(c2ccc(F)c(-c3cc(F)cnc3F)c2)N=C1N` (stereo not shown) [Example 92], on human BACE1, the IC50 is 0.01 to 0.1 µM. Besides, at human BACE2, the BACE1/BACE2 selectivity result is on record as “II (II = 10-100-fold selectivity)”.

With `CN1C(=O)C(c2ccc(OC(F)(F)F)cc2)(c2ccc(F)c(-c3cnn(C)c3)c2)N=C1N` (stereo not shown) [Example 100, 2-Amino-5-[4-fluoro-3-(1-methyl-1H-pyrazol-4-yl)phenyl]3-methyl-5-[4-(trifluoromethoxy)phenyl]-3,5-dihydro-4H-imidazol-4-one], the IC50 at human BACE1 lay in the range of 0.11 to 1 µM. Further, on human BACE2, the BACE1/BACE2 selectivity entry was “III (III = <10-fold selectivity)”.

For `CCOc1ccc([C@@]2(c3cccc(-c4cccnc4F)c3)N=C(N)N(C)C2=O)cc1OCC` [Example 103A, (5R)-2-Amino-5-(3,4-diethoxyphenyl)-5-[3-(2-fluoropyridin-3-yl)phenyl]-3-methyl-3,5-dihydro-4H-imidazol-4-one], at human BACE1, the IC50 was > 1 µM. Also, on human BACE2, the BACE1/BACE2 selectivity entry is recorded as “III (III = <10-fold selectivity)”.

As for `CCOc1ccc([C@]2(c3cccc(-c4cccnc4F)c3)N=C(N)N(C)C2=O)cc1OCC` [Example 103B, (5S)-2-Amino-5-(3,4-diethoxyphenyl)-5-[3-(2-fluoropyridin-3-yl)phenyl]-3-methyl-3,5-dihydro-4H-imidazol-4-one], the IC50 on human BACE1 lay in the range of 0.01 to 0.1 µM. Further, the BACE1/BACE2 selectivity entry at human BACE2 is on record as “II (II = 10-100-fold selectivity)”.

As to `COc1ccc([C@]2(c3ccc(F)c(-c4cncnc4)c3)N=C(N)N(C)C2=O)cc1C(F)(F)F` [Example 107A, (5S)-2-Amino-5-(4-fluoro-3-pyrimidin-5-ylphenyl)-5-[4-methoxy-3-(trifluoromethyl)phenyl]-3-methyl-3,5-dihydro-4H-imidazol-4-one], at human BACE1, the IC50 lay within 0.01 to 0.1 µM. Also, the BACE1/BACE2 selectivity entry on human BACE2 is given as “I (I = >100-fold selectivity)”.

In the case of `COc1ccc([C@@]2(c3ccc(F)c(-c4cncnc4)c3)N=C(N)N(C)C2=O)cc1C(F)(F)F` [Example 107B, (5R)-2-Amino-5-(4-fluoro-3-pyrimidin-5-ylphenyl)-5-[4-methoxy-3-(trifluoromethyl)phenyl]-3-methyl-3,5-dihydro-4H-imidazol-4-one], the IC50 on human BACE1 was > 1 µM. Moreover, on human BACE2, the BACE1/BACE2 selectivity entry is reported as “III (III = <10-fold selectivity)”.

As to `CN1C(=O)C(c2ccc(OCCF)cc2)(c2cccc(-c3cncc(F)c3)c2)N=C1N` (stereo not shown) [Example 110], at human BACE1, the IC50 is 0.01 to 0.1 µM. For the same molecule, on human BACE2, the BACE1/BACE2 selectivity entry was “II (II = 10-100-fold selectivity)”.

Regarding `Cc1cc(C2(c3cccc(-c4cncnc4)c3)N=C(N)N(C)C2=O)ccc1OCCC1CCCCC1` (stereo not shown) [Example 123], the IC50 on human BACE1 fell in the range of 0.11 to 1 µM. In addition, the BACE1/BACE2 selectivity entry on human BACE2 is “II (II = 10-100-fold selectivity)”.

On to `NC1=NC(c2ccc(OC(F)(F)F)cc2)(c2ccc(F)c(-c3cncnc3)c2)C(=O)N1CCF` (stereo not shown) [Example 126], for which the IC50 at human BACE1 was in the range of 0.11 to 1 µM. For the same molecule, the BACE1/BACE2 selectivity entry on human BACE2 is listed as “I (I = >100-fold selectivity)”.

`NC1=NC(c2ccc(OC(F)(F)F)cc2)(c2ccc(F)c(-c3cccnc3F)c2)C(=O)N1CCF` (stereo not shown) [Example 127]: the IC50 on human BACE1 is 0.11 to 1 µM. Besides, the BACE1/BACE2 selectivity entry on human BACE2 is given as “I (I = >100-fold selectivity)”.

For the molecule `CCN1C(=O)C(c2ccc(OC(F)F)cc2)(c2ccc(F)c(-c3cncc(F)c3)c2)N=C1N` (stereo not shown) [Example 128], at human BACE1, the IC50 is 0.11 to 1 µM. The BACE1/BACE2 selectivity result on human BACE2 is recorded as “II (II = 10-100-fold selectivity)”.

With `CN1C(=O)[C@](c2ccc(OC(F)F)cc2)(c2ccc(F)c(-c3cccnc3F)c2)N=C1N` [Example 133A, (5S)-2-Amino-5-[4-(difluoromethoxy)phenyl]-5-[4-fluoro-3-(2-fluoropyridin-3-yl)phenyl]-3-methyl-3,5-dihydro-4H-imidazol-4-one], at human BACE1, the IC50 was 0.11 to 1 µM. Moreover, the BACE1/BACE2 selectivity result at human BACE2 was “III (III = <10-fold selectivity)”.

As to `CN1C(=O)[C@@](c2ccc(OC(F)F)cc2)(c2ccc(F)c(-c3cccnc3F)c2)N=C1N` [Example 133B, (5R)-2-Amino-5-[4-(difluoromethoxy)phenyl]-5-[4-fluoro-3-(2-fluoropyridin-3-yl)phenyl]-3-methyl-3,5-dihydro-4H-imidazol-4-one], the 50% inhibitory concentration (IC50) at human BACE1 lay within 0.01 to 0.1 µM. Besides, on human BACE2, the BACE1/BACE2 selectivity entry is reported as “II (II = 10-100-fold selectivity)”.

On to `CN1C(=O)[C@](c2ccc(OC(F)F)cc2)(c2ccc(F)c(-c3ccc(F)nc3)c2)N=C1N` [Example 134A, (5S)-2-Amino-5-[4-(difluoromethoxy)phenyl]-5-[4-fluoro-3-(6-fluoropyridin-3-yl)phenyl]-3-methyl-3,5-dihydro-4H-imidazol-4-one], for which the IC50 on human BACE1 lay within 0.11 to 1 µM. For the same molecule, the BACE1/BACE2 selectivity entry on human BACE2 is “III (III = <10-fold selectivity)”.

As for `CN1C(=O)[C@@](c2ccc(OC(F)F)cc2)(c2ccc(F)c(-c3ccc(F)nc3)c2)N=C1N` [Example 134B, (5R)-2-Amino-5-[4-(difluoromethoxy)phenyl]-5-[4-fluoro-3-(6-fluoropyridin-3-yl)phenyl]-3-methyl-3,5-dihydro-4H-imidazol-4-one], the IC50 on human BACE1 fell in the range of 0.01 to 0.1 µM. Further, the BACE1/BACE2 selectivity entry on human BACE2 is given as “II (II = 10-100-fold selectivity)”.
